Laboratory results from US6391305B1, “Conjugates useful in the treatment of prostate cancer” (priority 1999, dated 2002).
pEC50: −log10 of the molar value. Read-outs that look alike come from different tables or passages of the source. Non-standard residues stand in square brackets, D forms with d. Residues, ends and D or L forms follow the SMILES beside them. *: point of attachment. Doxorubicin(3'-N) = COc1cccc2c1C(=O)c1c(O)c3c(c(O)c1C2=O)C[C@@](O)(C(=O)CO)C[C@@H]3O[C@H]1C[C@H](N*)[C@H](O)[C@H](C)O1; Decanoyl(3,6,9-trioxa) = COCCOCCOCC(=O)*; Glyceroyl(2S) = O=C([C@@H](O)CO)*; Glyceroyl(2R) = O=C([C@H](O)CO)*; hArg = N=C(N)NCCCC[C@H](N)C(=O)O; X1 = O=C([C@H](O)[C@@H](O)CO)*; Chg = N[C@H](C(=O)O)C1CCCCC1; Glycolyl = O=C(CO)*

How the values were obtained:
[1] = system: LNCap prostate tumor cells; test: In vitro cytotoxicity, Alamar Blue assay, LNCaP; format: cell-based; conditions: 72 HRS, read-out: LNCaP Cell Kill in 72 HRS, {48 HRS} EC 50
Procedure: (§1) The cytotoxicities of the cleaveable oligopeptide-doxorubicin conjugates, prepared as described in Examples 3-6, against a line of cells which is known to be killed by unmodified doxorubicin was assessed with an Alamar Blue assay. Specifically, cell cultures of LNCap prostate tumor cells or DuPRO cells in 96 well plates was diluted with medium containing various concentrations of a given conjugate (final plate well volume of 200 μl ). The cells were incubated for 3 days at 37° C., 20 μl of Alamar Blue is added to the assay well. The cells were further incubated and the assay plates were read on a EL-310 ELISA reader at the dual wavelengths of 570 and 600 nm at 4 and 7 hours after addition of Alamar Blue. Relative percentage viability at the various concentration of conjugate tested was then calculated versus control (no conjugate) cultures. If no salt is indicated, the free conjugate was tested.

[2] = target: T1, enzymatically active free PSA (Homo sapiens, UniProt P07288); test: Recognition (cleavage) of oligopeptide-doxorubicin conjugates by free PSA, HPLC; format: biochemical; conditions: DOX conjugate; for Time to 50% Substrate Cleavage by York PSA: PSA digestion buffer pH7.4, 140 mM NaCl, molar ratio to PSA 100 to 1
T1 construct: required for 50% cleavage of the noted oligopeptides with enzymatically active free PSA
Procedure: If no salt is indicated for the conjugate, the free conjugate was tested.

DuPRO cells = test: In vitro cytotoxicity, Alamar Blue assay, DuPRO; format: cell-based; conditions: value in parentheses beside the LNCaP value, read-out: DuPRO cell kill EC 50
Procedure: as §1

[3] = Solubility remarks (INSOLUBLE, PS, PP) printed beside the assay results of Tables 2-4; format: physicochemical; conditions: DOX conjugate in cytotoxicity test
[4] = listed as PEG(2)-ShRYQ-SL-DOX(3′)

T1 sequence (P07288 25-261): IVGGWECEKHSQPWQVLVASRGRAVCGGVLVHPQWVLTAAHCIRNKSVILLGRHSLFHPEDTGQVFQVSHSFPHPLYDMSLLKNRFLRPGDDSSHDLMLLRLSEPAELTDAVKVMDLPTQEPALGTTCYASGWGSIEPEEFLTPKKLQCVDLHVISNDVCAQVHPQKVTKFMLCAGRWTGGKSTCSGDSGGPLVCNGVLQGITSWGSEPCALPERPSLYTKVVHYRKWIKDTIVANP

Structure (SMILES) | pEC50 [1] | Time to 50% Substrate Cleavage by York PSA [2] | pEC50 (DuPRO cells) | pEC50 [1, 4] | pEC50 (DuPRO cells; [4]) | Substrate cleavage by York PSA at 4 HOUR ([2]; 4 hours) | Solubility remark in Table 4 [3]
COc1cccc2c1C(=O)c1c(O)c3c(c(O)c1C2=O)C[C@@](O)(C(=O)CO)C[C@@H]3O[C@H]1C[C@H](NC(=O)[C@H](CC(C)C)NC(=O)[C@H](CO)NC(=O)[C@H](CCC(N)=O)NC(=O)[C@@H](NC(=O)[C@H](CO)NC(=O)[C@H](CO)NC(=O)[C@H](O)CO)C2CCCCC2)[C@H](O)[C@H](C)O1 [(d)(2,3-dihydroxypropionyl)SerSerChgGln-SerLeu-DOX (3′)] ({Glyceroyl(2R)}-SS[Chg]QSL-{Doxorubicin(3'-N)}) | 5.04 | 120 min | < 4.00 | – | – | – | –
COCCOCCOCC(=O)N[C@@H](CO)C(=O)N[C@@H](CCCCNC(=N)N)C(=O)N[C@@H](Cc1ccc(O)cc1)C(=O)N[C@@H](CCC(N)=O)C(=O)N[C@@H](CO)C(=O)N[C@@H](CC(C)C)C(=O)N[C@H]1C[C@H](O[C@H]2C[C@](O)(C(=O)CO)Cc3c(O)c4c(c(O)c32)C(=O)c2c(OC)cccc2C4=O)O[C@@H](C)[C@H]1O [PEG(2)-SHomoRYQ-SL-DOX(3′), PEG(2)-SerhArgTyrGln-SerLeu-DOX(3′)] ({Decanoyl(3,6,9-trioxa)}-S[hArg]YQSL-{Doxorubicin(3'-N)}) | – | 35 min | – | 5.35 | < 4.00 | – | –
COc1cccc2c1C(=O)c1c(O)c3c(c(O)c1C2=O)C[C@@](O)(C(=O)CO)C[C@@H]3O[C@H]1C[C@H](NC(=O)[C@H](CC(C)C)NC(=O)[C@H](CO)NC(=O)[C@H](CCC(N)=O)NC(=O)[C@@H](NC(=O)[C@H](CO)NC(=O)[C@H](CO)NC(=O)[C@H](CCCCNC(=N)N)NC(=O)[C@H](O)CO)C2CCCCC2)[C@H](O)[C@H](C)O1 [(d)(2,3-dihydroxypropionyl)-hArgSerSerChgGln-SerLeu-DOX(3′)] ({Glyceroyl(2R)}-[hArg]SS[Chg]QSL-{Doxorubicin(3'-N)}) | 5.11 | 12 min | < 4.00 | – | – | – | –
COc1cccc2c1C(=O)c1c(O)c3c(c(O)c1C2=O)C[C@@](O)(C(=O)CO)C[C@@H]3O[C@H]1C[C@H](NC(=O)[C@@H](CC(C)C)NC(=O)[C@H](CO)NC(=O)[C@H](CCC(N)=O)NC(=O)[C@@H](NC(=O)[C@H](CO)NC(=O)[C@H](CO)NC(=O)[C@H](CO)NC(=O)[C@@H](O)CO)C2CCCCC2)[C@H](O)[C@H](C)O1 [(l)(2,3-dihydroxypropionyl)SerSerSerChgGln-Ser(dLeu)-DOX (3′)] ({Glyceroyl(2S)}-SSS[Chg]QS[dL]-{Doxorubicin(3'-N)}) | 4.04 | 180 min | < 4.00 | – | – | – | –
COCCOCCOCC(=O)N[C@@H](CCCCNC(=N)N)C(=O)N[C@@H](CO)C(=O)N[C@@H](CO)C(=O)N[C@H](C(=O)N[C@@H](CCC(N)=O)C(=O)N[C@@H](CO)C(=O)N[C@@H](CC(C)C)C(=O)N[C@H]1C[C@H](O[C@H]2C[C@](O)(C(=O)CO)Cc3c(O)c4c(c(O)c32)C(=O)c2c(OC)cccc2C4=O)O[C@@H](C)[C@H]1O)C1CCCCC1 [PEG(2)-HomoRSSChgQ-SL-DOX (3′), PEG(2)-hArgSerSerChgGln-SerLeu-DOX (3′)] ({Decanoyl(3,6,9-trioxa)}-[hArg]SS[Chg]QSL-{Doxorubicin(3'-N)}) | 5.24 | 11 min | < 4.00 | – | – | – | –
COc1cccc2c1C(=O)c1c(O)c3c(c(O)c1C2=O)C[C@@](O)(C(=O)CO)C[C@@H]3O[C@H]1C[C@H](NC(=O)[C@H](CC(C)C)NC(=O)[C@H](CO)NC(=O)[C@H](CCC(N)=O)NC(=O)[C@@H](NC(=O)[C@H](CO)NC(=O)[C@H](CO)NC(=O)[C@H](CO)NC(=O)CO)C2CCCCC2)[C@H](O)[C@H](C)O1 [2-hydroxyacetyl-SSSChgQ-SL-DOX (3′), N-(2-Hydroxyacetyl)-Ser-Ser-Ser-Chg-Gln-Ser-Leu-Dox] (Glycolyl-SSS[Chg]QSL-{Doxorubicin(3'-N)}) | 5.14 | 25 min | < 4.00 | – | – | – | –
COc1cccc2c1C(=O)c1c(O)c3c(c(O)c1C2=O)C[C@@](O)(C(=O)CO)C[C@@H]3O[C@H]1C[C@H](NC(=O)[C@H](CC(C)C)NC(=O)[C@H](CO)NC(=O)[C@H](CCC(N)=O)NC(=O)[C@@H](NC(=O)[C@H](CO)NC(=O)[C@H](CO)NC(=O)[C@H](CO)NC(=O)[C@H](O)CO)C2CCCCC2)[C@H](O)[C@H](C)O1 [N-2(R)-2,3-dihydroxypropionyl-Ser-Ser-Ser-Chg-Gln-Ser-Leu-Dox] ({Glyceroyl(2R)}-SSS[Chg]QSL-{Doxorubicin(3'-N)}) | 5.24 | 55 min | < 4.00 | – | – | – | –
COCCOCCOCC(=O)N[C@@H](CCCCNC(=N)N)C(=O)N[C@H](C(=O)N[C@@H](CCC(N)=O)C(=O)N[C@@H](CO)C(=O)N[C@@H](CC(C)C)C(=O)N[C@H]1C[C@H](O[C@H]2C[C@](O)(C(=O)CO)Cc3c(O)c4c(c(O)c32)C(=O)c2c(OC)cccc2C4=O)O[C@@H](C)[C@H]1O)C1CCCCC1 [PEG(2)-HomoRChgQ-SL-DOX (3′), PEG(2)-hArgChgGln-SerLeu-DOX (3′)] ({Decanoyl(3,6,9-trioxa)}-[hArg][Chg]QSL-{Doxorubicin(3'-N)}) | – | – | – | – | – | 12% | INSOLUBLE
COc1cccc2c1C(=O)c1c(O)c3c(c(O)c1C2=O)C[C@@](O)(C(=O)CO)C[C@@H]3O[C@H]1C[C@H](NC(=O)[C@H](CC(C)C)NC(=O)[C@H](CO)NC(=O)[C@H](CCC(N)=O)NC(=O)[C@@H](NC(=O)[C@H](CCCCNC(=N)N)NC(=O)[C@H](CO)NC(=O)[C@H](O)[C@@H](O)CO)C2CCCCC2)[C@H](O)[C@H](C)O1 [(2R,3S) 2,3,4-trihydroxybutanoyl-SerhArgChgGln-SerLeu-DOX (3′)] (X1-S[hArg][Chg]QSL-{Doxorubicin(3'-N)}) | 4.85 | 45 min | < 4.00 | – | – | – | –
